According to patent US6458847B1, “Method for screening for drugs useful in inhibition of polymerization of aβ and tau peptides” (University of Alabama at Birmingham Research Foundation, priority 1995, dated 2002):

Experiments:
[1] = molecular target: T1, juvenile rat MTτ (Rattus norvegicus, UniProt P19332, DEL587-617); assay: Fatty acid dependence of tau assembly, polymer length per field by electron microscopy; type: biochemical
T1 construct: killed by decapitation at postnatal day 11 (juveniles); from tissue; host or cells: brain microtubules of P11 Sprague-Dawley rats
Procedure: All free fatty acids were purchased in the cis conformation and at maximum available purity from Sigma Chemical Company free fatty acids were diluted into tau and amyloid samples from a 200× ethanolic stock, such that the final ethanol concentration in all samples and controls was 0.5%.
Assembly was performed at 37° C. in siliconized microfuge tubes.
For staining of amyloid filaments, 4% uranyl acetate was used and the H2O rinse was omitted. […] Because short filaments were sometimes difficult to distinguish from background debri in digitized images, high concentrations of DTT were routinely used in order to maximize the production of longer filaments.

[2] = system: tau; assay: Arachidonic acid stimulated polymerization, all tau preparations examined; type: biochemical; conditions: tau concentrations of 2.5-5 μM
Procedure: (§1) For most experiments, tau proteins were diluted to 2× the desired concentration in buffer A, then 1/2 in borate saline (0.1 M H3BO3, 25 mM Na2B4O7, 75 mM NaCl) supplemented with 20 mM dithiothreitol (DTT) and 2× the required concentration of free fatty acids (final pH ˜8.4). Assembly was performed at 37° C. in siliconized microfuge tubes. For evaluating the dependence of assembly on ionic strength, tau was diluted 1/10 into 111 mM Tris pH 7.2, 11 mM DTT, supplemented to give the indicated final concentrations of NaCl. At 250 mM NaCl, the measured CMC of arachidonic acid in the Tris buffering system was >2 mM. […] For staining of amyloid filaments, 4% uranyl acetate was used and the H2O rinse was omitted. […] For filament length measurements, random micrographs obtained at a nominal magnification of 15K were digitized and traced using either software from Universal Imaging Corporation or the public domain NIH Image program (for Macintosh; written by W. Rasband at the NIH and available from the Internet by anonymous ftp from zippy.nimh.nih.gov or on floppy disk from NTIS, 5285 Port Royal Rd., Springfield, Va. 22161, part number PB93-504868). […] Because short filaments were sometimes difficult to distinguish from background debri in digitized images, high concentrations of DTT were routinely used in order to maximize the production of longer filaments.

[3] = Critical micellar concentration by phase partitioning of phenylnaphthylamine; type: physicochemical
Procedure: All free fatty acids were purchased in the cis conformation and at maximum available purity from Sigma Chemical Company free fatty acids were diluted into tau and amyloid samples from a 200× ethanolic stock, such that the final ethanol concentration in all samples and controls was 0.5%. Values for the critical micellar concentration (CMC) were obtained based on the phase partitioning of […] phenylnaphthylamine (Kovatchev et al., 1981) when free fatty acids were diluted into assembly buffer.
For most experiments, tau proteins were diluted to 2× the desired concentration in buffer A, then 1/2 in borate saline (0.1 M H3BO3, 25 mM Na2B4O7, 75 mM NaCl) supplemented with 20 mM dithiothreitol (DTT) and 2× the required concentration of free fatty acids (final pH ˜8.4). Assembly was performed at 37° C. in siliconized microfuge tubes. For evaluating the dependence of assembly on ionic strength, tau was diluted 1/10 into 111 mM Tris pH 7.2, 11 mM DTT, supplemented to give the indicated final concentrations of NaCl. At 250 mM NaCl, the measured CMC of arachidonic acid in the Tris buffering system was >2 mM.

[4] = molecular target: T2, human recombinant tau (Homo sapiens, UniProt P10636); assay: Arachidonic acid dependence of tau assembly, human recombinant tau; type: biochemical; conditions: 20-80 μM arachidonic acid, 66 hours; no spontaneous assembly
T2 construct: the conditions defined herein are conducive to assembly of the full length tau protein; polyhistidine tag; host or cells: E. coli
Text: Sprague-Dawley rats were obtained from Charles River, Wilmington, Mass., and killed by decapitation at postnatal day 11 (juveniles) or at greater than six weeks of age (adults). Fresh porcine brains were obtained from Bryan Meat Packing, Westpoint Miss. Detailed protocols for the isolation of tau from whole brain or twice-cycled brain microtubules have been described above. Nonphosphorylated, recombinant human tau (htau40; Goedert et al., 1989) was the gift of Dr. Jeff Kuret, Northwestern University Medical School, Chicago, Ill. Recombinant tau was produced in E. coli as a fusion protein with a polyhistidine tag, and purified to near homogeneity by nickel-chelate and gel filtration chromatography (Carmel et al., 1994). Following purification tau isolates were dialyzed against buffer A (20 mM morpholinoethanesulfonic acid pH 6.8, 80 mM NaCl, 2 mM EGTA, 1 mM MgCl2, 0.1 mM EDTA) and stored at −80° C. Protein concentrations were determined using the method of Lowry (Lowry et al., 1951), after samples in Laemmli sample buffer (Laemmli, 1970) were precipitated with 10 volumes of 10% perchloric acid, 1% phosphotungstic acid. Bovine serum albumin was used as the standard. […] At 250 mM NaCl, the measured CMC of arachidonic acid in the Tris buffering system was >2 mM. […]

[5] = system: adult rat MTτ; assay: Arachidonic acid dependence of tau assembly, adult rat MTτ; type: biochemical; conditions: arachidonic acid 10-40 μM
Procedure: as §1

[6] = system: tau purified from porcine whole brain; assay: Arachidonic acid dependence of tau assembly, porcine whole brain tau; type: biochemical; conditions: 20-80 μM arachidonic acid, 66 hours; no spontaneous assembly
Procedure: Assembly was performed at 37° C. in siliconized microfuge tubes. […] For staining of amyloid filaments, 4% uranyl acetate was used and the H2O rinse was omitted. […] Because short filaments were sometimes difficult to distinguish from background debri in digitized images, high concentrations of DTT were routinely used in order to maximize the production of longer filaments.

[7] = system: microtubule tau purified from P11 rat, adult rat; conditions: glutathione 1-10 mM
Procedure: In general, tau stored at −80° C. in buffer A was thawed at 4° C., diluted into 100 mM Tris pH 7.2 containing DTT or b-mercaptoethanol (bME), and incubated at 37° C. 100 mM MES was used for experiments requiring buffering below pH 7. Final tau concentrations were in the range of 1-10 μM. […] Samples were deposited in 10 ml aliquots onto 400 mesh nickel grids coated with 0.4% formvar, rinsed with 5 drops H2O, and stained with 5 drops of 2% uranyl acetate, the last drop sitting 1 minutes prior to blotting. Grids were examined using a JEOL JEM-100CX transmission electron microscope operated at 80 kV. For filament length measurements, micrographs obtained at a nominal magnification of 15K (FIG. 6) or 10K (FIGS. 7 and 9) were digitized using a SIT68 camera (MTI), and lengths were determined using software from Universal Imaging Corporation. Only filaments contained completely within a field and measuring at least 50 nm were included in data sets. Fields selected at random were chosen at low illumination and without the aid of the 10× binoculars, so that Formvar integrity could be assessed without viewing the filaments present.

T1 sequence (P19332 with tags, fused parts or gaps isoform P19332-6 DEL209-239): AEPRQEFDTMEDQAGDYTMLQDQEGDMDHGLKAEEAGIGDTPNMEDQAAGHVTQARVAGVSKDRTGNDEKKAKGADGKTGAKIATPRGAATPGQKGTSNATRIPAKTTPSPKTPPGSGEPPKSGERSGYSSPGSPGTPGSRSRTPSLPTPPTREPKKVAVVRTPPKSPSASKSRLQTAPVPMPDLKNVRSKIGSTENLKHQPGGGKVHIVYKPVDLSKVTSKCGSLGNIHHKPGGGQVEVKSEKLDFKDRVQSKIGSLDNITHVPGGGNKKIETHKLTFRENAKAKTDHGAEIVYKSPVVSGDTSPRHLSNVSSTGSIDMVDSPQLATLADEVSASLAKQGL
T2 sequence (P10636 1-441 isoform P10636-8): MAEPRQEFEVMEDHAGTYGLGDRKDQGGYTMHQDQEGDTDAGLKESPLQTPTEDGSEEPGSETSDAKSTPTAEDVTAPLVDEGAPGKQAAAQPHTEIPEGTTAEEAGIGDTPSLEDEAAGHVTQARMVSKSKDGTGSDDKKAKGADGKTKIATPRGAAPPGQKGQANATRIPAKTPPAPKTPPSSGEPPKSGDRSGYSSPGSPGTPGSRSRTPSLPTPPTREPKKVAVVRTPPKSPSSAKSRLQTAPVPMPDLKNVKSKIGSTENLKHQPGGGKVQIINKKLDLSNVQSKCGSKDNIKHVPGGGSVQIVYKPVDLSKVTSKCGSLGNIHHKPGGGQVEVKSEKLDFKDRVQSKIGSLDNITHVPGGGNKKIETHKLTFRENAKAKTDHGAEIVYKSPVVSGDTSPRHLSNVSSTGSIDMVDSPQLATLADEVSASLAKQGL

SMILES	Polymer Mass (μm/field) ([1]; 50 μM free fatty acid, 72 hours, juvenile rat MTτ, average ± S.E.M. (n = 12))	% maximum ([1]; 50 μM free fatty acid, 72 hours, relative to the maximal assembly achieved with arachidonic acid) [%]	apparent threshold for stimulation of tau assembly ([1]; juvenile MTτ, longest timepoint tested)	lowest concentration inducing assembly [2] [µM]	CMC in the Tris buffering system ([3]; 250 mM NaCl, Tris buffering system) [mM]	CMC ([3]; free fatty acids diluted into assembly buffer) [mM]	filament formation, human recombinant tau [4]	polymerization of adult rat MTτ [5]	filament formation, tau purified from porcine whole brain [6]	assembly of microtubule tau (rat) [7]
CCCCCC=CCC=CCC=CCC=CCCCC(=O)O [5,8,11,14-eicosatetraenoic acid (20:4), 5,8,11,14-eicosatetraenoic acid]	24.51 ± 2.58	100	less than 10 μμM	10 to 20	> 2	0.16	Filaments were observed	stimulated the polymerization	Filaments were observed	–
N[C@@H](CCC(=O)N[C@@H](CS)C(=O)NCC(=O)O)C(=O)O [glutathione]	–	–	–	–	–	–	–	–	–	promoted the assembly
